Measured values taken from patent US12178846B2, “Methods of using gap junctions as therapeutic targets for the treatment of degenerative disorders of the retina” (The Research Foundation for The State University of New York, priority 2014, dated 2024).

Tested on: cells in the GCL of mouse retinas
Experiment: NMDA-induced excitotoxic cell death in the GCL of retina-eyecups
Assay type: cell-based
Experimental: All animal procedures were in compliance with the NIH Guide for the Care and Use of Laboratory Animals and approved by the Institutional Animal Care and Use Committees at SUNY College of Optometry. Experiments were performed on retinas of wild type (WT), connexin knockout (KO) mice (Cx36^−/−, Cx45^−/−, and Cx36^−/−/45^−/− dKO), and their heterozygous (Het) littermates. The methods used to impale and label neurons have been described previously (Hu et al., J Neurosci 23:[…] (2003); Völgyi et al., Journal of Comparative Neurology 512:664-687 (2009)). Briefly, flattened retina-eyecups were placed in a superfusion chamber, which was mounted on the stage of a BX51WI light microscope (Olympus) within a light-tight Faraday cage. […] The retina-eyecups were superfused with a modified, oxygenated Ames medium maintained at 35° C.
Various methods were employed to produce cell death. (1) Single cell apoptosis: CytC was injected into individual RGCs or Müller cells for 15 minutes after which retinas were incubated for 4 hours in oxygenated Ames medium before fixation. After streptavidin histology, apoptotic cells were detected with an anti-active caspase 3 antibody or with Terminal deoxynucleotidyl transferase dUTP nick end labeling (TUNEL) staining. (2) Excitotoxicity: To assess the contribution of GJs to cell death within populations of RGCs and amacrine cells we conducted parallel experiments in which retinas were preincubated for 20 minutes in normal Ames medium or in one containing the GJ blockers meclofenamic acid (MFA; 50 μM) or 18-beta-glycyrrhetinic acid (18Beta-GA; 25 μM). Both control and drug-treated retinas were then exposed for 1 hour to NMDA (100-300 μM) to induce excitotoxicity followed by 4 hours in the control Ames solution. (3) Retinal ischemia: Transient in vivo retinal ischemia was induced by introducing into the anterior chamber a 33-gauge needle attached to a saline-filled reservoir (0.9% sodium chloride) that was raised above the animal so as to increase intraocular pressure (IOP) to a level […]. MFA (2 μl, 500 μM) was administered intravitreally either 30 minutes before or 3 and 24 hours following the ischemic insult. […]
Apoptotic and necrotic cell death were assessed by cell counts following: (1) staining with Live/Death Viability Assay (calcein AM/ethidium homodimer (EthD) (Invitrogen); (2) TUNEL, or, (3) labeling for activated caspase 3. For population studies, dead cells were counted manually within 500×500 μm areas (5 areas per retina) from micrographs of whole-mounts using images acquired by confocal microscope. Nuclear cell counts were made per unit length (500 μm) of frozen retinal cross-sections labeled with propidium iodide (2 μg/ml).

## CC1(C)[C@@H](O)CC[C@]2(C)[C@H]3C(=O)C=C4[C@@H]5C[C@@](C)(C(=O)O)CC[C@]5(C)CC[C@@]4(C)[C@]3(C)CC[C@@H]12 [18Beta-GA, 18-Beta-glycyrrhetinic acid]
Control experiments, 18Beta-GA or MFA alone without NMDA, p>0.1
  cell viability, blocker alone: did not affect cell viability
Retinas preincubated in 18Beta-GA 25 μM or MFA 50 μM, then NMDA 100-300 μM 1 h, vs NMDA alone, p<0.001
  cell death in the GCL induced by excitotoxicity: significantly reduced
